Test results published in patent US12404267B2, “Solid state forms of n-[2-(2-{4-[2-(6,7-dimethoxy-3,4-dihydro-2(1H)-isoquinolinyl)ethyl]phenyl}-2H-tetrazol-5-yl)-4,5-dimethoxyphenyl]-4-oxo-4H-chromene-2-carboxamide and of its mesylate salt” (ASSIA CHEMICAL INDUSTRIES LTD., priority 2019, dated 2025).
Structures can show the parent of a compound that is named as a salt.

Test: Solubility of solid state forms of Encequidar mesylate
Format: physicochemical
Details: compared with amorphous Encequidar mesylate; no medium or method printed

**Q.** For `COc1cc2c(cc1OC)CN(CCc1ccc(-n3nnc(-c4cc(OC)c(OC)cc4NC(=O)c4cc(=O)c5ccccc5o4)n3)cc1)CC2` [Form B of Encequidar mesylate], which solubility is on record?
**A.** surprisingly greater than the solubility of amorphous Encequidar mesylate
